According to patent US10179779B2, “Polymorph forms” (RaQualia Pharma Inc., priority 2012, dated 2019):

Key:
Format in all cases: physicochemical
[1] = Hygroscopicity study by dynamic vapor sorption (DVS) analysis; settings: for weight gain %: 25° C.; for weight gain % / water absorbed: DVS; for water absorbed: under 95% RH at 25° C.
Method: Hygroscopicity study is performed using Surface Measurement Systems DVS-1. The sample is placed on a microbalance in the instrument and the weight change during the sorption/desorption cycle at 25° C. is monitored. One of the sorption/desorption programs consists of a sorption scan from 0 to 95% relative humidity (RH) and a desorption scan from 95 to 10% RH. The other consists of a sorption scan from 40 to 95% RH and desorption scan from 95 to 0% RH, followed by a second sorption scan from 0 to 40% RH. Both programs are carried out at 5% RH increments and the sample is allowed to equilibrate for 360 minutes or until equilibration had been attained at each step. At the end of the DVS experiment the sample is measured by PXRD.
In the hygroscopicity study by dynamic vapor sorption (DVS) analysis, both Polymorph Form III and Polymorph Form V absorb less than 1.2 wt % under 95% relative humidity (RH) at 25° C. On the other hand, the white solid disclosed in the prior art WO2006/090224 and Polymorph Form I absorb 15 wt % or 14 wt % of water under 95% RH at 25° C.

[2] = Solid-state stability study (constant temperature/humidity chamber; HPLC, PXRD); settings: for purity after storage: 40° C./75% RH for 6 months (rounded)
Method: HPLC data are obtained by Waters Alliance 2695 HPLC system with 2996 PDA detector using the following conditions; • Column: Inertsil ODS-3 (3 micrometers, 4.6×150 mm), • Eluent: acetonitrile/10 mM ammonium acetate=32:68, • Detection: UV at 215 nm, • Flow rate: 1 mL/min, and • Column temperature: 40° C.
Solid-state stability study is performed using Nagano Science Constant temperature/humidity control chamber LH-20-11 M, LH-21-11 M, LTL-200D3CJ-14 or LTX-01. […] The crystalline form, thermal behavior, purity and/or weight change of the resultant sample after the exposure or irradiation are evaluated by PXRD, TG/DTA or DSC, HPLC, microbalance, respectively.

[3] = Thermal transformation of crystal form (variable-temperature PXRD); settings: for temperature at which transformation to another polymorph form begins: heating, Form I to Form II, Form III to Form IV
Method: The PXRD analyses are performed using a Rigaku RINT-TTR X-ray powder diffractometer using Cu-Kalpha radiation. The samples can also be measured under the high/low temperature condition by using the attachment of the variant-temperature sample holder. The instrument is equipped with a fine focus X-ray tube. The tube voltage and amperage are set to 50 kV and 300 mA respectively. The divergence and scattering slits are set at 0.5° and the receiving slit is set at 0.15 mm. Diffracted radiation is detected by a NaI scintillation detector. A theta-two theta continuous scan at 4°/min (step size 0.02°) from 3 to 40(°) 2-theta is used. A silicon standard is analyzed to check the machine alignment. Data are collected and analyzed using-Rigaku X-ray system. Samples are prepared for analysis by placing them in an aluminum sample holder that is horizontally rotated at 60 rpm during data acquisition.
4-{[4-({[4-(2,2,2-Trifluoroethoxy)-1,2-benzisoxazol-3-yl]oxy}methyl)piperidin-1-yl]methyl}-tetrahydro-2H-pyran-4-carboxylic acid Polymorph Form I (5 mg) is placed on the temperature-variable sample holder of PXRD, and the temperature of the sample holder is raised to 120° C. and kept for 10 min., then cooled down to room temperature without nitrogen flow to the sample holder to afford Polymorph Form II of 4-{[4-({[4-(2,2,2-trifluoroethoxy)-1,2-benzisoxazol-3-yl]oxy}methyl)piperidin-1-yl]methyl}-tetrahydro-2H-pyran-4-carboxylic acid. Conversion to the Polymorph Form II is confirmed by in situ monitoring of PXRD spectrum.
4-{[4-({[4-(2,2,2-Trifluoroethoxy)-1,2-benzisoxazol-3-yl]oxy}methyl)piperidin-1-yl]methyl}-tetrahydro-2H-pyran-4-carboxylic acid Polymorph Form III begins to transform to Polymorph Form IV at around 90° C. Conversion to the Polymorph Form IV is confirmed by in situ monitoring of PXRD spectrum (variable-temperature PXRD measurement).

[4] = 25° C./60% RH, 40° C./75% RH and/or Xenon lamp
[5] = 40° C./75% RH for 1 month, HPLC
[6] = 40° C./75% RH for 6 months, HPLC
[7] = storage at 40° C./75% RH for 1 month, HPLC
[8] = storage at 40° C./75% RH for 6 months, HPLC

SMILES	weight gain % ([1]; 85% RH) [%]	weight gain % ([1]; 90% RH) [%]	weight gain % ([1]; 95% RH) [%]	water absorbed [1] [wt %]	solid-state stability, comparison in words [2]	solid-state stability (in words) [2, 4]	Purity (Area %) Main peak [2, 5] [Area %]	purity after storage [2] [%]	Purity (Area %) Main peak [2, 6] [Area %]	solid-state stability (in words) ([2]; 70° C./75% RH)	remaining ([2]; 70° C./75% RH, after 3 weeks, HPLC) [%]	Assay Remaining % [2, 7] [%]	Assay Remaining % [2, 8] [%]	hygroscopicity in comparison with the white solid of WO2006/090224 [1]	temperature at which transformation to another polymorph form begins [3]	change of crystal form on storage ([2]; 25° C./60% RH)	time to transformation to Polymorph Form III ([2]; 70° C./75% RH) [days]	temperature up to which the form is stable [3]
O=C(O)C1(CN2CCC(COc3noc4cccc(OCC(F)(F)F)c34)CC2)CCOCC1 [White solid disclosed in the prior art WO2006/090224] [4-{[4-({[4-(2,2,2-trifluoroethoxy)-1,2-benzisoxazol-3-yl]oxy}methyl)piperidin-1-yl]methyl}-tetrahydro-2H-pyran-4-carboxylic acid, reference compound]	0.99	5.3	15	15														
O=C(O)C1(CN2CCC(COc3noc4cccc(OCC(F)(F)F)c34)CC2)CCOCC1 [Polymorph Form III, 4-{[4-({[4-(2,2,2-trifluoroethoxy)-1,2-benzisoxazol-3-yl]oxy}methyl)piperidin-1-yl]methyl}-tetrahydro-2H-pyran-4-carboxylic acid]	0.48	0.53	0.60		more excellent solid-state stability than Polymorph Form I	stable	99.7	99	99.1	chemically and physically stable	100	99	97	lower hygroscopicity	around 90 °C			
O=C(O)C1(CN2CCC(COc3noc4cccc(OCC(F)(F)F)c34)CC2)CCOCC1 [Polymorph Form I, 4-{[4-({[4-(2,2,2-trifluoroethoxy)-1,2-benzisoxazol-3-yl]oxy}methyl)piperidin-1-yl]methyl}-tetrahydro-2H-pyran-4-carboxylic acid]	0.065	0.089	14	14	more stable than the white solid	stable	99.4	96	95.6			98	87		around 110 °C	gradually transforms to Polymorph Form III	≤ 1	
O=C(O)C1(CN2CCC(COc3noc4cccc(OCC(F)(F)F)c34)CC2)CCOCC1 [Polymorph Form V, 4-{[4-({[4-(2,2,2-trifluoroethoxy)-1,2-benzisoxazol-3-yl]oxy}methyl)piperidin-1-yl]methyl}-tetrahydro-2H-pyran-4-carboxylic acid]	0.74	0.85	1.1											lower hygroscopicity				
O=C(O)C1(CN2CCC(COc3noc4cccc(OCC(F)(F)F)c34)CC2)CCOCC1 [Polymorph Form II, 4-{[4-({[4-(2,2,2-trifluoroethoxy)-1,2-benzisoxazol-3-yl]oxy}methyl)piperidin-1-yl]methyl}-tetrahydro-2H-pyran-4-carboxylic acid]					more stable than the white solid													
O=C(O)C1(CN2CCC(COc3noc4cccc(OCC(F)(F)F)c34)CC2)CCOCC1 [Polymorph Form IV, 4-{[4-({[4-(2,2,2-trifluoroethoxy)-1,2-benzisoxazol-3-yl]oxy}methyl)piperidin-1-yl]methyl}-tetrahydro-2H-pyran-4-carboxylic acid]																		up to 115 °C
